Reference: ChEMBL document CHEMBL1134909, “A 5-fluorodeoxyuridine prodrug as targeted therapy for prostate cancer” (Bioorg Med Chem Lett, 2002)
*1 amine or outer side, *2 acyl side, *3 side chain or, on linkers, in order; H or OH if unused. Where a SMILES comes first, the peptide text is derived from it. [ ]: non-standard residue; d: D form. The star is where a group is joined. X1 = O=c1[nH]c(=O)n([C@H]2C[C@H](O)[C@@H](CO*)O2)cc1F; Morpholide = C1CN(*)CCO1; Aib = CC(C)(N)C(=O)O; CO = O=C([*:1])[*:2]

How the values were obtained:
LNCaP = assay: Cytotoxic concentration in prostate specific antigen (PSA) producing human LNCaP cells; type: functional, cell-based
TSU = assay: Cytotoxic concentration in non prostate specific antigen (PSA) producing human TSU cells; type: functional, cell-based

SMILES | IC50 (LNCaP) [nM] | IC50 (TSU) [nM]
CC(C)C[C@H](NC(=O)[C@H](CCCCN)NC(=O)[C@H](CO)NC(=O)[C@H](CO)NC(=O)[C@H](Cc1c[nH]cn1)NC(=O)N1CCOCC1)C(=O)N[C@@H](CCC(N)=O)C(=O)N[C@@H](CC(C)C)C(=O)NC(C)(C)C(=O)OC[C@H]1O[C@@H](n2cc(F)c(=O)[nH]c2=O)C[C@@H]1O ({Morpholide-CO}-HSSKLQL[Aib]-X1) | 117 | 7200
O=c1[nH]c(=O)n([C@H]2C[C@H](O)[C@@H](CO)O2)cc1F [FLOXURIDINE] | 69.2 | 58
